From ChEMBL document CHEMBL6083254, “Optimization of B-Ring-Functionalized Antimalarial Tambjamines and Prodiginines” (J Med Chem, 2024)
pIC50: −log10 of the molar value. Activity calls are given as the source filed them. The calls are words filed in the database; no cut-off is given here.

Experiments:
Plasmodium yoelii [1] = assay: Antiplasmodial activity against asexual erythrocytic stage of Plasmodium yoelii infected in female CFI mouse model assessed as reduction in parasitemia at 25 mg/kg, po administered once daily for 4 days and measured on day 5 by Giemsa staining based microscopic analysis relative to control; format: functional; set-up: scale not given: the % may be the effect or the level left; settings: time 5 day
Plasmodium yoelii [2] = assay: Antiplasmodial activity against asexual erythrocytic stage of Plasmodium yoelii infected in female CFI mouse model assessed as reduction in parasitemia at 3 mg/kg, po administered once daily for 4 days and measured on day 5 by Giemsa staining based microscopic analysis relative to control; format: functional
Plasmodium yoelii [3] = assay: Antiplasmodial activity against asexual erythrocytic stage of Plasmodium yoelii infected in female CFI mouse model assessed as reduction in parasitemia at 10 mg/kg, po administered once daily for 4 days and measured on day 5 by Giemsa staining based microscopic analysis relative to control; format: functional
Plasmodium yoelii [4] = assay: Antiplasmodial activity against asexual erythrocytic stage of Plasmodium yoelii infected in female CFI mouse model assessed as reduction in parasitemia at 1 mg/kg, po administered once daily for 4 days and measured on day 5 by Giemsa staining based microscopic analysis relative to control; format: functional
Plasmodium yoelii [5] = assay: Antiplasmodial activity against asexual erythrocytic stage of Plasmodium yoelii infected in female CFI mouse model at 25 mg/kg, po administered once daily for 4 days and measured on day 5 by Giemsa staining based microscopic analysis; format: functional, organism-based; settings: time 5.0 day
[6] = Aqueous solubility of compound in PBS buffer at pH 7.4 incubated for 90 mins by UV-vis spectroscopic analysis; settings: pH 7.4, 1.5 h
Plasmodium falciparum [7] = assay: microbe, parasite or virus in culture; settings: Tm90-C2B, 72 h
Plasmodium falciparum [8] = assay: microbe, parasite or virus in culture; settings: Dd2, 72 h
[9] = Metabolic stability in mouse liver microsomes assessed as half life measured upto 60 mins LC-MS analysis
HepG2 = assay: Cytotoxicity against human HepG2 cells assessed as cell viability incubated for 72 hrs by MTT assay; format: toxicity, cell-based; settings: hepg2
[10] = Metabolic stability in mouse liver microsomes assessed as intrinsic clearance measured upto 60 mins LC-MS analysis
Plasmodium falciparum [11] = assay: microbe, parasite or virus in culture; settings: D6, 72 h
in vitro = settings: human
Description: Selectivity index, ratio of IC50 for cytotoxicity against human HepG2 cells assessed as cell viability to IC50 for antiplasmodial activity against asexual erythrocytic stage of Plasmodium falciparum D6 assessed as inhibition of parasitic growth incubated

[12] = Metabolic stability in human liver microsomes assessed as half life measured upto 60 mins LC-MS analysis
[13] = Metabolic stability in human liver microsomes assessed as intrinsic clearance measured upto 60 mins LC-MS analysis
Plasmodium yoelii [14] = assay: Antiplasmodial activity against asexual erythrocytic stage of Plasmodium yoelii infected in po dosed female CFI mouse model assessed as reduction in parasitemia administered once daily for 4 days and measured on day 5 by Giemsa staining based microscopic analysis; format: functional; settings: 120 h, time 5 day

SMILES | Activity (Plasmodium yoelii [1]) [%] | Activity (Plasmodium yoelii [2]; time 5.0 day) | Activity (Plasmodium yoelii [3]; time 5.0 day) | Activity (Plasmodium yoelii [4]; time 5.0 day) | Activity (Plasmodium yoelii [5]) | solubility [6] [µM] | pIC50 (Plasmodium falciparum [7]) | pIC50 (Plasmodium falciparum [8]) | half-life at 1 h [9] [min] | pIC50 (HepG2) | microsomal CLint at 1 h [10] [µL/min/mg] | pIC50 (Plasmodium falciparum [11]) | selectivity ratio (in vitro) | half-life at 1 h [12] [min] | microsomal CLint at 1 h [13] [µL/min/mg] | Activity (Plasmodium yoelii [2]; time 5 day) [%] | Activity (Plasmodium yoelii [3]; time 5 day) [%] | Activity (Plasmodium yoelii [4]; time 5 day) [%] | ED50 (Plasmodium yoelii [14]; Plasmodium yoelii, po, read-out: ED50) [mg/kg/day] | ED50 (Plasmodium yoelii [14]) [mg/kg/day]
CCN(CC)CCCC(C)Nc1ccnc2cc(Cl)ccc12 (stereo not drawn) [CHLOROQUINE] | 100 | inactive | inactive | inactive | inactive | – | – | – | – | – | – | – | – | – | – | – | – | – | – | –
C1=C(OCc2ccccc2)/C(=C/NC23CC4CC(CC(C4)C2)C3)N=C1c1ccc[nH]1.Cl | 63 | – | – | – | – | 5.91 | 8.28 | 8.13 | > 60 | 5.96 | 17.8 | 8.19 | 171 | 19.3 | 71.7 | – | – | – | – | –
C1=C(Oc2ccccc2)/C(=C/NC23CC4CC(CC(C4)C2)C3)N=C1c1ccc[nH]1.Cl | >99 | – | – | – | – | 7.88 | 7.75 | 7.66 | > 60 | 5.07 | 18.9 | 7.59 | 331 | 34.7 | 40 | – | – | – | – | –
CC(C)OC1=CC(c2ccc[nH]2)=N/C1=C\NC1CCCCCC1.Cl | 43.6 | – | – | – | – | 157 | 8.27 | 8.42 | 18 | 5.45 | 76.8 | 8.45 | 1020 | 12.2 | 114 | – | – | – | – | –
CCCCCc1cc(/C=C2\N=C(c3ccc[nH]3)C=C2OCc2ccccc2)[nH]c1C.Cl | 100 | – | – | – | – | < 3.125 | 8.01 | 8.37 | > 60 | 5.15 | 7.33 | 8.10 | 896 | > 60 | 3.89 | 43.3 | 86.9 | 16.8 | – | –
CC(C)OC1=CC(c2ccc[nH]2)=N/C1=C\NC12CC3CC(CC(C3)C1)C2.Cl | 74.1 | – | – | – | – | 78 | 8.69 | 8.70 | 30.9 | 5.90 | 44.8 | 8.75 | 715 | 14.2 | 97.6 | – | – | – | – | –
CCOC1=CC(c2ccc[nH]2)=N/C1=C\NC12CC3CC(CC(C3)C1)C2.Cl | 24 | – | – | – | – | 115 | 9.15 | 9.11 | 32.7 | 5.97 | 42.4 | 9.30 | 2150 | 17.7 | 78.3 | – | – | – | – | –
CCCCCc1cc(/C=C2\N=C(c3ccc[nH]3)C=C2Oc2ccc(Cl)cc2)[nH]c1C.Cl | – | – | – | – | Active | – | 8.00 | 8.15 | – | 5.02 | – | 8.10 | 1210 | – | – | – | 100 | 5.01 | 1.15 | 1.25
CCCCCc1cc(/C=C2\N=C(c3ccc[nH]3)C=C2OCc2ccc(OC(F)(F)F)cc2)[nH]c1C.Cl | 100 | inactive | inactive | inactive | inactive | – | 7.90 | 8.10 | – | 5.19 | – | 8.14 | 900 | – | – | – | – | – | – | –
CCCCCCCCCCCc1ccc(/C=C2\N=C(c3ccc[nH]3)C=C2OC(C)C)[nH]1.Cl | 100 | inactive | inactive | inactive | inactive | – | 7.45 | 7.74 | – | 4.06 | – | 7.57 | 3240 | – | – | – | – | – | – | –
CCCCCCCCCCCc1ccc(/C=C2\N=C(c3ccc[nH]3)C=C2OCC)[nH]1.Cl | 100 | inactive | inactive | inactive | inactive | < 3.125 | 8.40 | 8.46 | 41.9 | 4.68 | 33.1 | 8.36 | 4750 | > 60 | 19.1 | – | – | – | – | –
CCCCCc1cc(/C=C2\N=C(c3ccc[nH]3)C=C2OCc2ccc(Cl)cc2)[nH]c1C.Cl | 97.1 | inactive | inactive | inactive | – | – | 8.06 | 8.35 | – | 4.98 | – | 8.15 | 1480 | – | – | – | – | – | – | –
CCCOC1=CC(c2ccc[nH]2)=N/C1=C\NC12CC3CC(CC(C3)C1)C2.Cl | 81.8 | – | – | – | – | 52.2 | 8.79 | 8.84 | 43.5 | 5.60 | 31.8 | 8.93 | 2140 | 32 | 42.8 | – | – | – | – | –
CCCCCCCCCCCc1ccc(/C=C2\N=C(c3ccc[nH]3)C=C2OCc2ccccc2)[nH]1.Cl | 62.3 | inactive | inactive | inactive | – | < 3.125 | 7.65 | 7.58 | > 60 | 4.27 | 4.03 | – | 2020 | > 60 | 7.29 | – | – | – | – | –
Cl.FC(F)(F)Oc1ccc(COC2=CC(c3ccc[nH]3)=N/C2=C\NC23CC4CC(CC(C4)C2)C3)cc1 | 81.8 | – | – | – | – | < 3.125 | 8.61 | 8.74 | 56.4 | 5.43 | 24.6 | 8.70 | 1860 | 45.4 | 30.6 | – | – | – | – | –
CCCCCCCCCCCc1ccc(/C=C2\N=C(c3ccc[nH]3)C=C2OCCC)[nH]1.Cl | 100 | inactive | inactive | inactive | inactive | – | 8.10 | 8.12 | – | 4.72 | – | 8.17 | 2810 | – | – | – | – | – | – | –
